According to ChEMBL document CHEMBL5338706, “Discovery of a potent and selective proteolysis targeting chimera (PROTAC) degrader of NSD3 histone methyltransferase” (Eur J Med Chem, 2022):
Active and inactive are the calls of the source. The calls are words filed in the database; no cut-off is given here.

Legend:
[1] = Downregulation of c-Myc level in human NCI-H520 cells at 5 uM by measuring fold change by Western blot analysis relative to control; assay type: functional
[2] = Downregulation of CDC25A level in human NCI-H1703 cells at […] by measuring fold change by Western blot analysis relative to control; assay type: functional; details: dose 7.5 µM
[3] = target: T1, Histone-lysine N-methyltransferase NSD3 (Homo sapiens) (UniProt Q9BZ95); experiment: Induction of NSD3 degradation in human A549 cells assessed as reduction of NSD3 protein at 7.5 measured after 48 hrs by Western blot analysis; assay type: cell-based
T1 sequence (whole entry): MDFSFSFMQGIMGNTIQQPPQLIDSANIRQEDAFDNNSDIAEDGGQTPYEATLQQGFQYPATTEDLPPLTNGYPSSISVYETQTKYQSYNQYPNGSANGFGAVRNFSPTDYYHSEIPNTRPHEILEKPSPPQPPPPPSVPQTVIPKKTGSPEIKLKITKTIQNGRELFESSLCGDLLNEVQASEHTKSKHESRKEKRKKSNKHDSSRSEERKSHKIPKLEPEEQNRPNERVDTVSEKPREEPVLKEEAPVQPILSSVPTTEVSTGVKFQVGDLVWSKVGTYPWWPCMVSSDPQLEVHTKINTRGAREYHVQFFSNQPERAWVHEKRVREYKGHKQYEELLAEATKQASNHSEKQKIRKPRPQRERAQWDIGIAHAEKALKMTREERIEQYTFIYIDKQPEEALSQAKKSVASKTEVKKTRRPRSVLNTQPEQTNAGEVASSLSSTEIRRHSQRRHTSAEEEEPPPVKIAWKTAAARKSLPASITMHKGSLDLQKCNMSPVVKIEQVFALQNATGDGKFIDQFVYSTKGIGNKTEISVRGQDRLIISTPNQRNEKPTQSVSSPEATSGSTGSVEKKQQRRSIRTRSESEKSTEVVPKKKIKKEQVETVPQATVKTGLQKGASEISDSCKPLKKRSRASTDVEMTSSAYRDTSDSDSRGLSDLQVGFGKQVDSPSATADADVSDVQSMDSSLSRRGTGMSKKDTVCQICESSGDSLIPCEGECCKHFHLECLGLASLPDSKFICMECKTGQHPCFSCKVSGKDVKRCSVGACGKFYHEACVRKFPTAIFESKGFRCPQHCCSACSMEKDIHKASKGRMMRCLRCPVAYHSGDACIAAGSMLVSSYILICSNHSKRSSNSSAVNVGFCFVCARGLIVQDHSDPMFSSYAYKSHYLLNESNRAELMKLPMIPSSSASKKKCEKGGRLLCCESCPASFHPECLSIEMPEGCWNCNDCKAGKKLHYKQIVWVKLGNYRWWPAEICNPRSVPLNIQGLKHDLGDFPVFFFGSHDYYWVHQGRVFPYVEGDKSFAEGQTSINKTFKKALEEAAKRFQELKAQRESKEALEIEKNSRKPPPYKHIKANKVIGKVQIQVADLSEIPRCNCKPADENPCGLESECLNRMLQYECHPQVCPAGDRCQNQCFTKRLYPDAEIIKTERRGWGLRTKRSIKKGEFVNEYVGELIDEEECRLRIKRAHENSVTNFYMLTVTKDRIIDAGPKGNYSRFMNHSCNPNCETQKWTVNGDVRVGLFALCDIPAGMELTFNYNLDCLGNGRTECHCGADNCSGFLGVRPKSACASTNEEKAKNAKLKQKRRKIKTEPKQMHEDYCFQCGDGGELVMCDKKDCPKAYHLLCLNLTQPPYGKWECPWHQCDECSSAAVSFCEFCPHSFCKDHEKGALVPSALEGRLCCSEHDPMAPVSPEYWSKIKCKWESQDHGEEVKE

[4] = test system: NCI-H1703; experiment: Induction of cell cycle arrest in human NCI-H1703 cells assessed as increase accumulation of cells at G2/M phase at […] incubated for 48 hrs by propidium iodide staining based analysis; assay type: functional; details: dose 7.5 µM
[5] = test system: NCI-H1703; experiment: Induction of apoptosis in human NCI-H1703 cells assessed as viable cells at 10 uM measured after 72 hrs by PI/Annexin-V staining based flow cytometry analysis (reference value: 92.7% ); assay type: functional; details: read-out: Activity
[6] = target: T1, Histone-lysine N-methyltransferase NSD3 (Homo sapiens); experiment: Induction of NSD3 degradation in human NCI-H1703 cells at 5 uM measured within 12 hrs by Western blot analysis; assay type: cell-based
[7] = target: T1, Histone-lysine N-methyltransferase NSD3 (Homo sapiens); experiment: Induction of NSD3 degradation in human NCI-H1703 cells at 0.001 to 10 uM by Western blot analysis; assay type: cell-based; details: dose 0.001-10 µM, time <= 72.0 hrs, TDE = time-dependent effect
[8] = test system: A549; experiment: Antitumor activity against human A549 cells xenografted mouse model assessed as reduction in NSD3 expression level at 100 mg/kg, ip measured within 36 hrs by Western blot analysis; assay type: functional, organism-based
[9] = test system: NCI-H1703; experiment: Induction of apoptosis in human NCI-H1703 cells assessed as decrease in Bcl-XL protein expression at […] by measuring fold change by Western blot analysis relative to control; assay type: functional; details: dose 7.5 µM
[10] = test system: NCI-H1703; experiment: Induction of apoptosis in human NCI-H1703 cells assessed as early apoptotic cells at 3 uM measured after 72 hrs by PI/Annexin-V staining based flow cytometry analysis (reference value: 1.47% ); assay type: functional
[11] = test system: NCI-H1703; experiment: Induction of apoptosis in human NCI-H1703 cells assessed as viable cells at 3 uM measured after 72 hrs by PI/Annexin-V staining based flow cytometry analysis (reference value: 92.7% ); assay type: functional; details: read-out: Activity
[12] = test system: NCI-H1703; experiment: Downregulation of c-Myc level in human NCI-H1703 cells at 3 to […] by Western blot analysis; assay type: functional, cell-based; details: dose 3-7.5 µM
[13] = target: T1, Histone-lysine N-methyltransferase NSD3 (Homo sapiens); experiment: Induction of NSD3 degradation in human NCI-H1703 cells at 5 uM incubated for 72 hrs by Western blot analysis; assay type: cell-based
[14] = test system: NCI-H520; experiment: Induction of apoptosis in human NCI-H520 cells assessed as decrease in NSD3 protein expression at 5 uM by measuring fold change by Western blot analysis relative to control; assay type: functional
[15] = test system: NCI-H1703; experiment: Induction of apoptosis in human NCI-H1703 cells assessed as viable cells at […] measured after 72 hrs by PI/Annexin-V staining based flow cytometry analysis (reference value: 92.7% ); assay type: functional; details: dose 7.5 µM, read-out: Activity
[16] = test system: NCI-H1703; experiment: Downregulation of ALDH1A1 in human NCI-H1703 cells at […] measured after 72 hrs by RNA sequencing assay; assay type: functional, cell-based; details: dose 7.5 µM
[17] = test system: NCI-H520; experiment: Induction of apoptosis in human NCI-H520 cells assessed as decrease in MCL-1 protein expression at 5 to 10 uM by Western blot analysis; assay type: functional, cell-based; details: dose 5-10 µM
[18] = Downregulation of CDC25A level in human NCI-H1703 cells at 3 uM by measuring fold change by Western blot analysis relative to control; assay type: functional
[19] = test system: NCI-H520; experiment: Induction of apoptosis in human NCI-H520 cells assessed as decrease in Bcl-XL protein expression at 10 uM by measuring fold change by Western blot analysis relative to control; assay type: functional

- Activity [3]: Active
- Activity [6]: Active
- Activity [7]: Tde
- NSD3 degradation [13]: 58.9%
Structure (SMILES): Cc1cc(CNCCCCCCCCCCC(=O)N[C@H](C(=O)N2C[C@H](O)C[C@H]2C(=O)N[C@@H](C)c2ccc(-c3scnc3C)cc2)C(C)(C)C)cc(C)c1-c1ncn(C)c1-c1ccnc2cc(F)ccc12
- fold change (FC) [1]: 0.97
- fold change (FC) [2]: 0.77
- Activity [4]: Active
- viability at 10 µM [5]: 7.76%
- Activity [8]: Active
- fold change (FC) [9]: 0.67
- Activity [10]: 1.48%
- viability at 3 µM [11]: 94.2%
- Activity [12]: Active
- fold change (FC) [14]: 0.83
- viability at […] [15]: 66.7%
- Activity [16]: Active
- Activity [17]: Active
- fold change (FC) [18]: 0.81
- fold change (FC) [19]: 0.89
